Experimental data reported in patent publication US11691949B2, “Quinoline sulfonamide compounds and their use as antibacterial agents” (OTAGO INNOVATION LIMITED, priority 2017, dated 2023).
Converted amounts (≈) assume the structure as drawn. Counter-ions that a name gives are not always drawn. Like-named read-outs stand apart in the source and are kept apart here.

Key:
Assay type in all cases: cell-based
S. aureus ATCC 6538 = test: MIC by broth microdilution, S. aureus; settings: Staphylococcus aureus
In short: (§1)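 MBC measured as cell viability after compound challenge by Miles-Misra drop plating. MIC: broth microdilution at ~5×10^5 cfu/mL final (S. aureus: TSB, CAMHB; E. coli: LB, CAMHB; optional 50 μM zinc sulphate), 24 h at 37° C, 200 rpm, lowest concentration without growth by OD600; biological triplicate.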

S. uberis ATCC 19436 = test: MIC by broth microdilution, S. uberis; settings: Streptococcus uberis
In short: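 Streptococcus uberis ATCC 19436 was tested in Todd Hewitt Broth by broth microdilution in 96-well flat bottom plates, in biological triplicate. Overnight cells were diluted to OD600 of approximately 0.025, giving about 5×10^5 cfu/mL in the wells. Compounds were serially diluted two-fold to 200 μl, incubated 24 h at 37° C. and 200 rpm, and the MIC was taken from OD600.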

E. coli ATCC 10596 = test: MIC by broth microdilution, E. coli; settings: Escherichia coli
In short: as §1

[1] = ATCC6538, read-out: S. aureus ATCC 6538 MIC, No Zinc
[2] = ATCC6538, read-out: S. aureus ATCC 6538 MIC, Zinc (50 μM)
[3] = ATCC19436, read-out: S. uberis ATCC 19436 MIC, No Zinc
[4] = ATCC19436, read-out: S. uberis ATCC 19436 MIC, Zinc (50 μM)
[5] = ATCC 10536 / ATCC 10596, read-out: E. coli ATCC 10536 MIC, No Zinc
[6] = ATCC 10536 / ATCC 10596, read-out: E. coli ATCC 10536 MIC, Zinc (50 μM)
[7] = ATCC6538, No Zinc, read-out: S. aureus ATCC 6538 MIC
[8] = ATCC6538, Zinc (50 μM), read-out: S. aureus ATCC 6538 MIC
[9] = ATCC19436, No Zinc, read-out: S. uberis ATCC 19436 MIC
[10] = ATCC19436, Zinc (50 μM), read-out: S. uberis ATCC 19436 MIC
[11] = ATCC 10536 / ATCC 10596, No Zinc, read-out: E. coli ATCC 10536 MIC
[12] = ATCC 10536 / ATCC 10596, Zinc (50 μM), read-out: E. coli ATCC 10536 MIC

MIC (S. aureus ATCC 6538; [7]) [µg/mL]	MIC (S. aureus ATCC 6538; [8]) [µg/mL]	MIC (S. uberis ATCC 19436; [9]) [µg/mL]	MIC (S. uberis ATCC 19436; [10]) [µg/mL]	MIC (E. coli ATCC 10596; [11]) [µg/mL]	MIC (E. coli ATCC 10596; [12]) [µg/mL]	SMILES	MIC (S. aureus ATCC 6538; [1]) [µg/mL]	MIC (S. aureus ATCC 6538; [2]) [µg/mL]	MIC (S. uberis ATCC 19436; [3]) [µg/mL]	MIC (S. uberis ATCC 19436; [4]) [µg/mL]	MIC (E. coli ATCC 10596; [5]) [µg/mL]	MIC (E. coli ATCC 10596; [6]) [µg/mL]
> 256	32 (≈ 89 µM)	128 (≈ 356 µM)	0.0625 (≈ 0.174 µM)	> 256	> 256	CN(C)Cc1ccc2cccc(NS(=O)(=O)c3ccccc3F)c2n1 [ZDR201, N-(2-((Dimethylamino)methyl)quinolin-8-yl)-2-fluorobenzenesulfonamide]						
> 256	> 256	256 (≈ 844 µM)	2 (≈ 6.59 µM)	> 256	> 256	C#CCS(=O)(=O)Nc1cccc2ccc(CN(C)C)nc12 [ZDR506, N-(2-((Dimethylamino)methyl)quinolin-8-yl)prop-2-yne-1-sulfonamide]						
> 256	> 256	256 (≈ 681 µM)	1 (≈ 2.66 µM)	> 256	> 256	CN(C)Cc1ccc2cccc(NS(=O)(=O)c3ccccc3Cl)c2n1 [ZDR190, 2-Chloro-N-(2-((dimethylamino)methyl)quinolin-8-yl)benzenesulfonamide]						
128 (≈ 264 µM)	128 (≈ 264 µM)	> 256	0.5 (≈ 1.03 µM)	> 256	> 256	O=S(=O)(Nc1cccc2ccc(/C=N/NCc3ccccc3)nc12)c1ccc(C(F)(F)F)cc1 [ZDR138, (E)-N-(2-((2-Benzylhydrazineylidene)methyl)quinolin-8-yl)-4-(trifluoromethyl)benzenesulfonamide]						
32 (≈ 73.1 µM)	128 (≈ 293 µM)	16 (≈ 36.6 µM)	0.125 (≈ 0.286 µM)	64 (≈ 146 µM)	256 (≈ 585 µM)	CC(C)CNCc1ccc2cccc(NS(=O)(=O)c3ccc(C(F)(F)F)cc3)c2n1 [ZDR403, N-(2-((Iso-Butylamino)methyl)quinolin-8-yl)-4-(trifluoromethyl)benzenesulfonamide]						
> 256	> 256	256 (≈ 647 µM)	0.0625 (≈ 0.158 µM)	> 256	> 256	CN(C)Cc1ccc2cccc(NS(=O)(=O)c3cc(F)c(F)cc3F)c2n1 [ZDR337, N-(2-((Dimethylamino)methyl)quinolin-8-yl)-2,4,5-trifluorobenzenesulfonamide]						
128 (≈ 314 µM)	128 (≈ 314 µM)	128 (≈ 314 µM)	0.125 (≈ 0.307 µM)	> 256	> 256	CN(C)Cc1ccc2cccc(NS(=O)(=O)c3ccc(OC(F)F)cc3)c2n1 [ZDR306, 4-(Difluoromethoxy)-N-(2-((dimethylamino)methyl)quinolin-8-yl)benzenesulfonamide]						
> 256	> 256	> 256	0.125 (≈ 0.347 µM)	> 256	> 256	Cc1noc(C)c1S(=O)(=O)Nc1cccc2ccc(CN(C)C)nc12 [ZDR082, N-(2-((Dimethylamino)methyl)quinolin-8-yl)-3,5-dimethylisoxazole-4-sulfonamide]						
64 (≈ 138 µM)	256 (≈ 552 µM)	32 (≈ 69 µM)	0.125 (≈ 0.27 µM)	> 256	256 (≈ 552 µM)	O=S(=O)(Nc1cccc2ccc(CN3CCCCCC3)nc12)c1ccc(C(F)(F)F)cc1 [ZDR408, N-(2-(Azepan-1-ylmethyl)quinolin-8-yl)-4-(trifluoromethyl)benzenesulfonamide]						
64 (≈ 150 µM)	> 256	64 (≈ 150 µM)	0.25 (≈ 0.585 µM)	> 256	256 (≈ 599 µM)	O=S(=O)(Nc1cccc2ccc(CNCCF)nc12)c1ccc(C(F)(F)F)cc1 [ZDR099, N-(2-(((2-Fluoroethyl)amino)methyl)quinolin-8-yl)-4-(trifluoromethyl)benzenesulfonamide]						

Continued, compound first:

SMILES	MIC (S. aureus ATCC 6538; [7]) [µg/mL]	MIC (S. aureus ATCC 6538; [8]) [µg/mL]	MIC (S. uberis ATCC 19436; [9]) [µg/mL]	MIC (S. uberis ATCC 19436; [10]) [µg/mL]	MIC (E. coli ATCC 10596; [11]) [µg/mL]	MIC (E. coli ATCC 10596; [12]) [µg/mL]	MIC (S. aureus ATCC 6538; [1]) [µg/mL]	MIC (S. aureus ATCC 6538; [2]) [µg/mL]	MIC (S. uberis ATCC 19436; [3]) [µg/mL]	MIC (S. uberis ATCC 19436; [4]) [µg/mL]	MIC (E. coli ATCC 10596; [5]) [µg/mL]	MIC (E. coli ATCC 10596; [6]) [µg/mL]
CN(C)CCNC(=O)CNCc1ccc2cccc(NS(=O)(=O)c3ccc(C(F)(F)F)cc3)c2n1 [ZDR268, N-(2-(Dimethylamino)ethyl)-2-(((8-((4-(trifluoromethyl)phenyl)sulfonamido)quinolin-2-yl)methyl)amino)acetamide di-trifluoroacetate]							64 (≈ 126 µM)	128 (≈ 251 µM)	32 (≈ 62.8 µM)	16 (≈ 31.4 µM)	64 (≈ 126 µM)	64 (≈ 126 µM)
CN(C)Cc1ccc2cccc(NS(=O)(=O)c3cccc(N)c3)c2n1 [ZDR162, 3-Amino-N-(2-((dimethylamino)methyl)quinolin-8-yl)benzenesulfonamide]	> 256	> 256	256 (≈ 718 µM)	16 (≈ 44.9 µM)	> 256	> 256						
CC(=O)Nc1ccc(S(=O)(=O)Nc2cccc3ccc(CN(C)C)nc23)cc1 [ZDR072, N-(4-(N-(2-((Dimethylamino)methyl)quinolin-8-yl)sulfamoyl)phenyl)acetamide]	> 256	> 256	256 (≈ 642 µM)	32 (≈ 80.3 µM)	> 256	> 256						
CN(C)Cc1ccc2cccc(NS(=O)(=O)c3ccc(F)c(F)c3)c2n1 [ZDR338, N-(2-((Dimethylamino)methyl)quinolin-8-yl)-3,4-difluorobenzenesulfonamide]	> 256	> 256	128 (≈ 339 µM)	0.0625 (≈ 0.166 µM)	> 256	> 256						
CC(C)N(Cc1ccc2cccc(NS(=O)(=O)c3ccc(C(F)(F)F)cc3)c2n1)C(C)C [ZDR136, N-(2-((Diisopropylamino)methyl)quinolin-8-yl)-4-(trifluoromethyl)benzenesulfonamide]	> 256	> 256	> 256	8 (≈ 17.2 µM)	> 256	> 256						
CN(C)Cc1ccc2cccc(NS(=O)(=O)c3cccc4cnccc34)c2n1 [ZDR339, N-(2-((Dimethylamino)methyl)quinolin-8-yl)isoquinoline-5-sulfonamide]	> 256	> 256	256 (≈ 652 µM)	2 (≈ 5.1 µM)	> 256	> 256						
CC(C)(C)OC(=O)N1CCCC(C(=O)N/N=C/c2ccc3cccc(NS(=O)(=O)c4ccc(C(F)(F)F)cc4)c3n2)C1 (mixture of isomers) [ZDR123, tert-Butyl (E/Z)-3-(2-((8-((4-(trifluoromethyl)phenyl)sulfonamido)quinolin-2-yl)methylene)hydrazine-1-carbonyl)piperidine-1-carboxylate]	> 256	> 256	> 256	0.125	> 256	> 256						
O=C(O)CNCc1ccc2cccc(NS(=O)(=O)c3ccc(C(F)(F)F)cc3)c2n1 [ZDR043, N-(2-(((Carboxymethyl)amino)methyl)quinolin-8-yl)-4-(trifluoromethyl)benzenesulfonamide trifluoroacetate]							> 256	> 256	> 256	> 256	> 256	> 256
CN(C)Cc1ccc2cccc(NS(=O)(=O)c3cccnc3)c2n1 [ZDR328, N-(2-((Dimethylamino)methyl)quinolin-8-yl)pyridine-3-sulfonamide]	> 256	> 256	> 256	1 (≈ 2.92 µM)	> 256	> 256						
